According to US7781483B2, “Benzopyran compound” (Nissan Chemical Industries, Ltd., priority 2004, dated 2010):
Counter-ions that a name gives are not always drawn.

Test system: Atrium
Assay: Effects on the effective refractory period (S1-S2 extrastimulus technique, anesthetized beagles under vagal nerve stimulation)
Assay type: in vivo
Details: 0.3 mg/kg intravenously, determined from 5 min after administration, bilateral vagal nerve stimulation, basic cycle length 300 msec, [after]-[before] drug administration
Description: Beagles were anesthetized with pentobarbital sodium and thoracotomy was done along the median line under a respirator and the incision was made on the pericardium to expose the heart. An electrocardiogram (ECG) was recorded using bipolar electrodes attached to the surface of the right atrial free wall, right atrial auricle, and right ventricular free wall. The vagal nerves were stimulated using an electrostimulation device with Nichrome wires inserted into the vagal nerves in the neck bilaterally. The conditions for electrostimulation to the vagal nerves were set such that the RR intervals on ECG were prolonged by about 100 msec compared with those before the stimulation was started.
Atrial and ventricular effective refractory periods were determined by S1-S2 extrastimulus technique at basic cycle length of 300 msec during bilateral vagal nerve stimulation, using programmable electric stimulator. A train of 10 basic stimuli (S1) was followed by a premature extrastimulus (S2) at 2 times diastolic threshold.
For evaluation of drug effects, the atrial and ventricular effective refractory periods were determined before drug administration, then respective compound was administrated intravenously at the dose of 0.3 mg/kg, and the atrial and ventricular effective refractory periods were determined from 5 min after the administration.
The results were shown as the prolongation time on the atrial and ventricular effective refractory periods, i.e. [effective refractory period after drug administration]−[effective refractory period before drug administration] (msec).

Row | SMILES | Prolongation time on the effective refractory period (msec) Atrium [ms]
1 | CN(c1ccc2c(c1)OC(C)(C)[C@H](O)[C@H]2NCCc1ccccc1)S(C)(=O)=O (relative stereo) [Synthesis Example 12, N-{(3R*,4S*)-3-hydroxy-2,2-dimethyl-4-[(2-phenylethyl)amino]-3,4-dihydro-2H-benzopyran-7-yl}-N-methylmethanesulfonamide hydrochloride] | 28
2 | CC1(C)Oc2cc(NS(C)(=O)=O)ccc2[C@H](NCCc2ccccc2)[C@H]1O (relative stereo) [Synthesis Example 7, N-{(3R*,4S*)-3-Hydroxy-2,2-dimethyl-4-[(2-phenylethyl)amino]-3,4-dihydro-2H-1-benzopyran-7-yl}methanesulfonamide maleate] | 32
3 | COc1cc2c(cc1NS(C)(=O)=O)OC(C)(C)[C@H](O)[C@H]2NCCC1CCCCC1 (relative stereo) [Synthesis Example 4, N-{(3R*,4S*)-4-[(2-Cyclohexylethyl)amino]-3-hydroxy-6-methoxy-2,2-dimethyl-3,4-dihydro-2H-1-benzopyran-7-yl}methanesulfonamide] | 26
4 | COc1cc2c(cc1N(C)S(C)(=O)=O)OC(C)(C)[C@H](O)[C@H]2NCCc1ccccc1 (relative stereo) [Synthesis Example 3, N-{(3R*,4S*)-3-Hydroxy-6-methoxy-2,2-dimethyl-4-[(2-phenylethyl)amino]-3,4-dihydro-2H-1-benzopyran-7-yl}-N-methylmethanesulfonamide] | 20
5 | COc1cc2c(cc1NS(C)(=O)=O)OC(C)(C)[C@H](O)[C@H]2NCCc1ccccc1 (relative stereo) [Synthesis Example 1, N-{(3R*,4S*)-3-Hydroxy-6-methoxy-2,2-dimethyl-4-[(2-phenylethyl)amino]-3,4-dihydro-2H-1-benzopyran-7-yl}methanesulfonamide] | 24
6 | Br.CC1(C)Oc2cc(NS(C)(=O)=O)c(O)cc2[C@H](NCCc2ccccc2)[C@H]1O (relative stereo) [Synthesis Example 2, N-{(3R*,4S*)-3,6-Dihydroxy-2,2-dimethyl-4-[(2-phenylethyl)amino]-3,4-dihydro-2H-1-benzopyran-7-yl}methanesulfonamide] | 26
